Experimental findings from PubChem BioAssay (NCI) are described below.

Among the test systems are SF-295 CNS; HCC-2998 colon; IGROV1 ovarian; COLO 205 colon; NCI-H522 lung; OVCAR-3 ovarian; SF-539 CNS; RXF 393 renal; OVCAR-4 ovarian; RPMI-8226 leukemia.
Holding throughout (test): inhibition of tumour cell growth, NCI panel, 48 h

“And” between values parts separate entries of the source, which are not always exact repeats. Identical values can stand only once.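 Five compound concentrations were applied to cells in 96-well plates for 48 hours; endpoints were derived by simple linear interpolation of the resulting dose-response curve. GI50 marks 50% less growth. Definition used: TGI = concentration required for complete inhibition of growth.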 A value given as a limit tells only on which side of the number the result lay.

Turning to `Fc1ccc2c(c1)cc1ccc3cccc4ccc2c1c34`, the TGI with SF-295 CNS, in the test on HCC-2998 colon, in the test on IGROV1 ovarian, in the test with COLO 205 colon, with NCI-H522 lung and with OVCAR-3 ovarian was more than 100 µM in each case. Besides, the TGI in the test on SF-539 CNS, in the test on RXF 393 renal and in the test on OVCAR-4 ovarian was more than 100 µM throughout.
On to `CC(CCC(=O)O)c1ccc(Br)cc1` (configuration not stated), for which the TGI with SF-295 CNS, in the test with HCC-2998 colon, in the test with IGROV1 ovarian, with COLO 205 colon, in the test with NCI-H522 lung and with OVCAR-3 ovarian was more than 100 µM each time. For the same compound, the TGI in the test with RPMI-8226 leukemia, in the test with RXF 393 renal and in the test with OVCAR-4 ovarian was more than 100 µM each time.
As to `NC(Cc1c[nH]c2cc(F)ccc12)C(=O)O` (configuration not stated), the GI50 is 502 µM with SF-295 CNS; 1640 µM with HCC-2998 colon; 1120 µM with COLO 205 colon; 773 µM with NCI-H522 lung; 792 µM in the test with OVCAR-3 ovarian; more than 2500 µM in the test on RPMI-8226 leukemia. The values for the GI50 in the test with SF-539 CNS, with RXF 393 renal and with OVCAR-4 ovarian were 890 µM, 1450 µM and more than 2500 µM, respectively. Moreover, the TGI in the test on SF-295 CNS is more than 2500 µM; in the test with HCC-2998 colon, more than 2500 µM; in the test with COLO 205 colon, more than 2500 µM; with NCI-H522 lung, 2280 µM; in the test with OVCAR-3 ovarian it was more than 2500 µM; with RPMI-8226 leukemia, more than 2500 µM. The TGI in the test on SF-539 CNS, with RXF 393 renal and with OVCAR-4 ovarian was more than 2500 µM in each case.
For `N.N.NCCCCCN.O=C([O-])CC(=O)[O-].O=C([O-])CC(=O)[O-].[Pt+4].[Pt+4]`, the GI50 with SF-295 CNS is 73.1 µM; in the test on HCC-2998 colon it was more than 100 µM; in the test with IGROV1 ovarian it was more than 100 µM; in the test on COLO 205 colon it was more than 100 µM; in the test with NCI-H522 lung it was more than 100 µM; in the test with OVCAR-3 ovarian, more than 100 µM. Moreover, the figures for the GI50 in the test with RPMI-8226 leukemia, in the test on SF-539 CNS and in the test with RXF 393 renal were more than 100 µM, 77.4 µM and more than 100 µM, respectively. Further, the TGI in the test with SF-295 CNS, in the test on HCC-2998 colon, in the test on IGROV1 ovarian, in the test on COLO 205 colon, in the test with NCI-H522 lung and in the test on OVCAR-3 ovarian was more than 100 µM in each case. For the same compound, the TGI in the test with RPMI-8226 leukemia, in the test on SF-539 CNS and in the test on RXF 393 renal was more than 100 µM in each case.
`CCN(CC)/[N+]([O-])=N/OCC(C)O` (configuration not stated): the TGI in the test with SF-295 CNS, in the test on HCC-2998 colon, in the test on IGROV1 ovarian, with NCI-H522 lung, with OVCAR-3 ovarian and in the test on SF-539 CNS was more than 100 µM in each case. For the same compound, the TGI with RXF 393 renal was more than 100 µM.
On to `COc1ccc(C(=O)c2cc(C)c(OC)c(C)c2)c(OC)c1N(C(=O)CCl)C(=O)CCl`, for which the GI50 in the test with SF-295 CNS is 0.0321 µM; in the test on HCC-2998 colon it was 0.0803 µM; with IGROV1 ovarian it was 0.0738 µM; in the test with COLO 205 colon, 0.104 µM; in the test on NCI-H522 lung, 0.0349 µM; in the test with OVCAR-3 ovarian, 0.0398 µM. Further, the GI50 in the test with RPMI-8226 leukemia is 0.118 µM; in the test with SF-539 CNS, 0.0302 µM; in the test with OVCAR-4 ovarian, 0.719 µM. The TGI worked out at 15.5 µM in the test on SF-295 CNS; 7.35 µM in the test on HCC-2998 colon; 3.83 µM in the test on IGROV1 ovarian; 17.6 µM with COLO 205 colon; 0.906 µM in the test on NCI-H522 lung; 1.58 µM with OVCAR-3 ovarian. Besides, the TGI in the test with RPMI-8226 leukemia is 15.1 µM; with SF-539 CNS it was 0.141 µM; with OVCAR-4 ovarian it was more than 67 µM.
With `Cc1nc(-n2nc(-c3ccccc3)cc2-c2ccccc2)sc1C(=O)/C=C/c1ccc(Cl)cc1`, the TGI was 30.5 µM in the test on SF-295 CNS; 29.9 µM in the test with HCC-2998 colon; more than 100 µM in the test with IGROV1 ovarian; 30.1 µM in the test on COLO 205 colon; 25.9 µM with NCI-H522 lung; 35.6 µM in the test on OVCAR-3 ovarian. Moreover, the TGI in the test on RPMI-8226 leukemia is 26.7 µM; with SF-539 CNS it was 27.4 µM; with RXF 393 renal it was 28.1 µM.
`COc1cc(/C=C2\Cc3ccccc3C2=O)cc(OC)c1OC`: the TGI with SF-295 CNS, in the test with HCC-2998 colon, in the test with COLO 205 colon, in the test with NCI-H522 lung, in the test on OVCAR-3 ovarian and in the test on RPMI-8226 leukemia was more than 100 µM throughout. Also, the TGI in the test with SF-539 CNS, with RXF 393 renal and in the test on OVCAR-4 ovarian was more than 100 µM throughout.
In the case of `CCC(=O)Nc1ncnc2ncn(C(=O)CC)c12`, the TGI in the test with SF-295 CNS, in the test with HCC-2998 colon, in the test with IGROV1 ovarian, in the test on NCI-H522 lung, in the test with OVCAR-3 ovarian and with RPMI-8226 leukemia was more than 100 µM each time. The TGI with RXF 393 renal and in the test on OVCAR-4 ovarian was more than 100 µM throughout.
With `CCCCCCC(O)C(O)CCC(O)C1CCC(CCCCC(O)CC2=CC(C)OC2=O)O1` (configuration not stated), the GI50 is 0.0305 µM with SF-295 CNS; 14.4 µM with COLO 205 colon; 13.7 µM in the test on OVCAR-3 ovarian; more than 100 µM in the test with SF-539 CNS; 22.9 µM with RXF 393 renal. Moreover, the TGI in the test with SF-295 CNS was 20.1 µM; in the test on HCC-2998 colon it was 34.5 µM; in the test with COLO 205 colon, 4.36 µM and 29.7 µM; with NCI-H522 lung, 22.8 µM; in the test with OVCAR-3 ovarian, 5.22 µM and 28.7 µM; in the test on RPMI-8226 leukemia it was 30.6 µM. In addition, the TGI was more than 100 µM with SF-539 CNS, 39.7 µM in the test with RXF 393 renal and 39.6 µM with OVCAR-4 ovarian.
Take `COc1cccc(NC(=O)c2ccc(NC3=C(Cl)C(=O)N(Cc4ccccc4)C3=O)cc2)c1`: the GI50 with SF-295 CNS is 10.5 µM; in the test on HCC-2998 colon, 17 µM; in the test with IGROV1 ovarian it was 13.3 µM; in the test with COLO 205 colon it was 23.7 µM; with NCI-H522 lung, 2.49 µM; in the test with OVCAR-3 ovarian, 3.29 µM. Further, the GI50 was 17.3 µM with SF-539 CNS, 2.09 µM with RXF 393 renal and 22 µM with OVCAR-4 ovarian. The TGI in the test with SF-295 CNS was 28.8 µM; with HCC-2998 colon it was 30.6 µM; in the test on IGROV1 ovarian, 28.7 µM; in the test on COLO 205 colon it was more than 100 µM; with NCI-H522 lung, 8.87 µM; with OVCAR-3 ovarian, 15.3 µM. Besides, the TGI is 31 µM with SF-539 CNS, 14.9 µM in the test with RXF 393 renal and more than 100 µM with OVCAR-4 ovarian.
